According to US4863969A, “Treatment of premalignant lesions and certain malignant tumors” (priority 1985, dated 1989):
Like-named read-outs stand apart in the source and are kept apart here.

Assays:
[1] = system: chemically-induced breast tumors; experiment: Prevention of chemically-induced (dimethyl-benz(a)anthracene) breast tumors in female rats; type: in vivo, female Sprague-Dawley rats; settings: in feed, 11 weeks
Experimental: (A) The activity of compound Ia with respect to the prevention of chemically-induced breast tumors was determined according to the following procedure. Female Sprague-Dawley rats were used in this experiment. The experimental animals were kept under temperature-controlled and light-controlled conditions and had free access to drinking water and feed. At the age of 50 days 15 mg of dimethyl-benz(a)anthracene dissolved in arachis oil were administered to each rat by means of a probang. The treatment with compound Ia began 1 day after the administration of the carcinogen. The body weight of the experimental animals was recorded and the tumors were palpated weekly and measured with a vernier caliper. The volumes were calculated according to the formula D/2·d^2 in which D represents the larger diameter of the tumor ellipsoid and d represents the smaller diameter of the tumor ellipsoid. After 11 weeks the experiment was terminated and evaluated. In this experiment there were used in addition to 30 control animals, which received exclusively normal feed, the following three groups of experimental animals:
1. 33 rats to which were administered daily 30 mg/kg of compound Ia mixed with the feed.
2. 36 rats to which were administered daily 90 mg/kg of compound Ia mixed with the feed.
3. 33 rats to which were administered daily 270 mg/kg of compound Ia mixed with the feed.
The feed mixture was adjusted weekly according to the body weight and the total food intake.

[2] = system: transplantable chondrosarcoma of the rat; experiment: Activity on the transplantable chondrosarcoma of the rat; type: in vivo, albino rats; settings: 400 mg/kg p.o.
Experimental: (B) The activity of compond Ia on tumors was, furthermore, determined on the transplantable chondrosarcoma of the rat according to the following method. The solid tumor of a donor animal was finely minced and suspended in phosphate-buffered sodium chloride solution. 0.5 ml of the 30% tumor suspension was implanted subcutaneously into albino rats. […] Each treatment group embraced 7 rats. Suspensions of compound Ia in arachis oil were administered orally five times per week for 4 weeks. The tumor areas were determined on days 1, 15 and 29. The largest (D) and the smallest (d) diameter of the tumors were determined with the aid of a vernier caliper and the product D·d was determined. The change in this area size was calculated in percentages.

[3] = system: squamous metaplasia of the vaginal epithelium; experiment: Antimetaplastic activity in ovarectomized rats (hormone-induced squamous metaplasia, vaginal smear); type: in vivo, female Holtzmann rats; settings: for Relative activity (antimetaplastic): all-trans vitamin A acid = 100%; for Antimetaplastic effect (average effective / protective dosage): oral, read 2 days after administration, area method of Behrens and Karber
Experimental: (C) The antimetaplastic activity of compound Ia was determined in rats according to the following method. Female Holtzmann rats weighing approximately 100 g were ovarectomized under Thiogenal narcosis after an adaptation period of 8 days and were used in the experiment after a further 14 days. In each case two animals were placed in a cage and had free access to feed which contained approximately 2000 IU of analytically determined vitamin A. Prior to the oral administration of the test compound the animals were treated subcutaneously each day for 6 successive days with the hormone mixture of 1 μg of estradiol benzoate and 250 μg of testosterone propionate dissolved in 0.1 ml of sesame oil. The parenteral hormone administration led to the formation of a clear granular stage in the vaginal smear, i.e. a squamous metaplasia. 2 days after the oral administration of the test substance the result of the reaction was again read off on the vaginal epithelium. The area method according to Behrens and Karber was employed to calculate the average effective dosages.

[4] = system: Prostate (mouse)/hyperplasia induced by methylcholanthrene; experiment: Chemically-induced precancerous tissue changes in prostate gland organ culture (methylcholanthrene-induced hyperplasia); type: cell-based; settings: read-out: Hyperplastic alveoli, relative to methylcholanthrene control; for activity at 1 µM: 10^-6 M; for activity at 0.1 µM: 10^-7 M; for activity at 0.01 µM: 10^-8 M; for activity at 0.001 µM: 10^-9 M
Experimental: (§1) (D) The activity of compound Ia on chemically-induced precancerous tissue changes was, furthermore, determined in vitro according to the following method. In this experiment prostate glands of mice and trachea of rats cultivated in organ cultures served as the experimental models. In tissues of organ cultures carcinogenic substances bring about after a short period precancerous changes in the form hyperplasias as well as metaplasias and dysplasias. Retinoids, which are administered simultaneously with the carcinogenic compounds or after these, prevent the hyperplasia or metaplasia and dysplasia or even cause these to regress.
(§2) The prostate glands consist of alveoli lined with one row of secretory cells and separated by a thin connective tissue. They were removed from mice aged 3-5 months and cut into lobules of approximately 1.5×1.5×2.0 mm. At least six of these lobules were placed on filter paper and transferred on a metal lattice into small culture chambers. Two of these culture chambers were enclosed in a Petri dish lined with a moist filter paper. The culture chambers were filled with nutrient medium up to the height of the lattice so that the explants were moistened well with the nutrient medium, but were not immersed in this. At the nutrient medium there was used customary Medium 199 supplemented by the addition of 15% serum from newly born calves. The carcinogen (3-methylcholanthrene) was added to this prior to the incubation in a concentration of 4-5 μg/ml of nutrient medium. The cultures were then incubated at 37.5° C. During the incubation they were kept in a Macintosh flask which was gassed with a mixture of 5% CO2 +95% oxygen. In a first series of experiments the carcinogen and compound Ia were combined and the tissue was cultivated for 10-12 days. In a second series the explants were pre-treated with the carcinogen for 10-12 days and thereafter placed in a nutrient medium, which only contained compound Ia, for 4-7 days. The concentration of compound Ia lay in the range of 10^-9 to 10^-6 Mol.
The activity of compound Ia is quantified by counting the normal and hyperplastic alveoli in sections of the explant. The results are expressed in percentages of hyperplastic alveoli of the total number of alveoli, for example 120 hyperplastic alveoli out of a total of 200 correspond to 60%. In explants treated with retinoids the percentage is usually small. […] The percentage of hyperplastic alveoli is reduced to 20/60=33%.

[5] = system: Trachea (rats)/hyperplasia induced by dimethylbenzanthracene; experiment: Chemically-induced precancerous tissue changes in trachea organ culture (dimethylbenzanthracene-induced hyperplasia); type: cell-based; settings: Rattus norvegicus, read-out: Mitotic index, relative to dimethylbenzanthracene control; for activity at 1 µM: 10^-6 M; for activity at 0.1 µM: 10^-7 M; for activity at 0.01 µM: 10^-8 M; for activity at 0.001 µM: 10^-9 M
Experimental: as §1, §2
Trachea of rats are cultivated in the same manner and treated with dimethylbenzanthracene as the carcinogen. The mitotic index serves as the parameter of the hyperplasia. With retinoid the mitotic index and the hyperplasias, respectively, are smaller. The results are compiled in Tables IV (prostate) and V (trachea).

[6] = Triglyceride / lipid value in blood plasma of rats; type: in vivo, albino rats
Experimental: In order to detect this activity a dosage of compound Ia was administered five times per dosage to 5 male and 5 female albino rats weighing approximately 150 g by means of a probang within 2 days in intervals of in each case 18 and 6 hours. 18 hours after the last application 1-1,2 ml of blood plasma were removed retroorbitally from the experimental animals. The triglyceride value was determined by enzymatic cleavage of the triglyceride with subsequent determination of the resulting glycerine (colour reaction) by means of Periodchrom triglyceride GPO-PAP.

[7] = cited from earlier work
[8] = Tolerability and toxicity; type: in vivo; settings: given intraperitoneally and given orally
[9] = Rydell et al. 1982; Kistler 1981; Loeliger et al. 1980; cited from earlier work
[10] = simultaneous treatment, methylcholanthrene (47% hyperplastic alveoli) = 100%
[11] = subsequent treatment, methylcholanthrene (65% hyperplastic alveoli) = 100%
[12] = simultaneous treatment, dimethylbenzanthracene (mitotic index 2.6) = 100%
[13] = subsequent treatment, dimethylbenzanthracene (mitotic index 3.1) = 100%

In the case of `C/C(=C\c1ccccc1)c1ccc2c(c1)C(C)(C)CCC2(C)C` [Compound Ia, 1,2,3,4-tetrahydro-1,1,4,4-tetramethyl-6-[(E)-alpha-methylstyryl]naphthalene], the “% tumor-bearing rats” value ([1]; 30 mg/kg daily oral) is reported as 69.6%, the “Average number of tumors per rat” value ([1]; 30 mg/kg daily oral) is reported as 3.0 and the “Average tumor volume per rat in mm^3” value ([1]; 30 mg/kg daily oral) is reported as 4904 mm^3. For the same compound, the “% tumor-bearing rats, relative to control (100%)” value ([1]; 30 mg/kg daily oral) was 88%, the “Average number of tumors per rat, relative to control (100%)” value ([1]; 30 mg/kg daily oral) was 81% and the “Average tumor volume per rat, relative to control (100%)” value ([1]; 30 mg/kg daily oral) was 77%. The “% tumor-bearing rats” value ([1]; 90 mg/kg daily oral) was 63.8%, the “Average number of tumors per rat” value ([1]; 90 mg/kg daily oral) was 1.8 and the “Average tumor volume per rat in mm^3” value ([1]; 90 mg/kg daily oral) was 2879 mm^3. For the same compound, the “% tumor-bearing rats, relative to control (100%)” value ([1]; 90 mg/kg daily oral) was 80%, the “Average number of tumors per rat, relative to control (100%)” value ([1]; 90 mg/kg daily oral) was 48% and the “Average tumor volume per rat, relative to control (100%)” value ([1]; 90 mg/kg daily oral) was 45%. For the same compound, the “% tumor-bearing rats” value ([1]; 270 mg/kg daily oral) was 39.3%, the “Average number of tumors per rat” value ([1]; 270 mg/kg daily oral) was 0.7 and the “Average tumor volume per rat in mm^3” value ([1]; 270 mg/kg daily oral) was 543 mm^3. For the same compound, the “% tumor-bearing rats, relative to control (100%)” value ([1]; 270 mg/kg daily oral) was 50%, the “Average number of tumors per rat, relative to control (100%)” value ([1]; 270 mg/kg daily oral) was 18% and the “Average tumor volume per rat, relative to control (100%)” value ([1]; 270 mg/kg daily oral) was 9%. The “Tumor area in mm^2, Day 29” value ([2]; five times per week for 4 weeks, Day 29 (control 5926)) was 1694 mm^2, the “Change in tumor area, Day 29” value ([2]; five times per week for 4 weeks, Day 29 vs Day 1 (control +394%)) was “+30%” and the “Tumor area in mm^2, Day 1” value ([2]; five times per week, Day 1) was 1300 mm^2. The “Tumor area in mm^2, Day 15 after the commencement of treatment” value ([2]; five times per week, Day 15 (control 2880)) was 1416 mm^2, the “Change in tumor area, Day 15” value ([2]; five times per week, Day 15 vs Day 1 (control +140%)) was “+9%” and the “Relative activity (antimetaplastic)” value [3] was 66.6%. For the same compound, the “Epithelium protection effect (=anti-metaplastic effect) reduced by the factor” value ([3]; compared with all-trans vitamin A acid) was 0.67, the “Antimetaplastic effect (average effective / protective dosage)” value [3] was 53.6 µg and the activity at 1 µM [4, 10] was 25%. For the same compound, the activity at 0.1 µM [4, 10] was 46%, the activity at 0.01 µM [4, 10] was 60% and the activity at 0.001 µM [4, 10] was 90%. It also gave an activity at 1 µM [4, 11] of 54%, an activity at 0.1 µM [4, 11] of 94% and an activity at 0.01 µM [4, 11] of 98%. For the same compound, the activity at 0.001 µM [4, 11] was 100%, the activity at 1 µM [5, 12] was 54% and the activity at 0.1 µM [5, 12] was 46%. It also gave an activity at 0.01 µM [5, 12] of 46%, an activity at 0.001 µM [5, 12] of 104% and an activity at 1 µM [5, 13] of 45%. It also gave an activity at 0.1 µM [5, 13] of 70%, an activity at 0.01 µM [5, 13] of 74% and an activity at 0.001 µM [5, 13] of 75%. For the same compound, the “Effect on the lipid value in blood plasma” value ([6]; as a sole therapeutically active retinoid) was “no increase in the lipid value in blood plasma”, the Lipid-lowering activity ([6]; blood plasma) was “possesses a lipid-lowering activity” and the “Triglyceride value in blood plasma” value ([6]; female rats, 10 mg/kg by probang, five times within 2 days (control 69 ± 28)) was 56 ± 25 mg/100 ml. For the same compound, the “Triglyceride value in blood plasma” value ([6]; female rats, 100 mg/kg by probang, five times within 2 days (control 69 ± 28)) was 72 ± 18 mg/100 ml, the “Triglyceride value in blood plasma” value ([6]; female rats, 1000 mg/kg by probang, five times within 2 days (control 69 ± 28)) was 30 ± 8 mg/100 ml and the “Triglyceride value in blood plasma” value ([6]; male rats, 10 mg/kg by probang, five times within 2 days (control 201 ± 39)) was 158 ± 56 mg/100 ml. The “Triglyceride value in blood plasma” value ([6]; male rats, 100 mg/kg by probang, five times within 2 days (control 201 ± 39)) was 173 ± 18 mg/100 ml, the “Triglyceride value in blood plasma” value ([6]; male rats, 1000 mg/kg by probang, five times within 2 days (control 201 ± 39)) was 41 ± 19 mg/100 ml and the “Hypervitaminosis A phenomena” value ([7]; e.g. manifestations on skin and mucous membranes) was “does not exhibit, in particular, any hypervitaminosis A phenomena”. For the same compound, the “Tolerability / toxic symptoms” value ([7]; in the therapeutically indicated dosages) was “well tolerated and that no toxic symptoms appear”, the Teratogenicity ([7]; in vivo) was “non-teratogenic” and the Skin irritation ([7]; skin) was “not irritating to the skin”.

With `CC1=C(/C=C/C(C)=C/C=C/C(C)=C/C(=O)O)C(C)(C)CCC1` [all-trans vitamin A acid, reference compound] the “Relative activity (antimetaplastic)” value [3] was 100% and the “Antimetaplastic effect (average effective / protective dosage)” value [3] was 35.7 µg.

In the case of `CC(=Cc1ccccc1)c1ccc2c(c1)C(C)(C)CCC2(C)C` [compound of formula I, 1,2,3,4-tetrahydro-1,1,4,4-tetramethyl-6-(alpha-methylstyryl)naphthalene], the Toxicity [8] is given as “relatively non-toxic” and the “Biological activity in preliminary screening tests” value [9] is given as “biologically inactive”.
